Data set [1] concerns Staphylococcus aureus. The experiment in a line: Growth inhibition of Staphylococcus aureus ATCC 25923 by microdilution method. The format is organism-based. The note with it: in vivo. In general terms: In broth dilution the organism is exposed to a series of concentrations in liquid medium.
Data set [2] concerns Staphylococcus aureus. In words: Growth inhibition of Staphylococcus aureus SA-1199 expressing wild type norA by microdilution method. The settings on record: in vivo. It counts as organism-based.
In data set [3] the test system is Staphylococcus aureus. The experiment in a line: Growth inhibition of Staphylococcus aureus SA-1199B expressing wild type norA and co-expressing GrlA A116E mutant by microdilution method. The format is organism-based. The settings on record: in vivo.
Data set [4] deals with T1, Quinolone resistance protein NorA (Staphylococcus aureus) (UniProt P0A0J7).
T1 sequence (whole entry): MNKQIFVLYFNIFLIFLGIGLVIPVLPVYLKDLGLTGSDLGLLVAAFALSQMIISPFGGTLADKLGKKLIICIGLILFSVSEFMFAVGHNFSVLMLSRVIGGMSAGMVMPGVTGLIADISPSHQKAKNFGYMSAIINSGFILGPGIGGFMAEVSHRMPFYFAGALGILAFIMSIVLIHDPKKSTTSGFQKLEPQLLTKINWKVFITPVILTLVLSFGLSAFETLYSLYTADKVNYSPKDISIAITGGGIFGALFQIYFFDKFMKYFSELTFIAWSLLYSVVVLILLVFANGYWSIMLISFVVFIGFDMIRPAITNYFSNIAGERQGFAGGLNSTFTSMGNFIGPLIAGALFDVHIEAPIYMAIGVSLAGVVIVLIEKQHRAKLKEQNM
In words: Inhibition of Staphylococcus aureus SA-1199B NorA assessed as reduction in EtBr efflux at 50 uM measured over 5 mins by fluorescence assay relative to control.

Data set [5] addresses T2, Quinolone resistance protein NorA (Staphylococcus aureus, UniProt P0A0J7).
T2 sequence (P0A0J7 whole entry): T1 sequence (whole entry)
The experiment in a line: Inhibition of Staphylococcus aureus SA-1199B NorA assessed as reduction in EtBr efflux measured over 5 mins by fluorescence assay.

In data set [6] the test system is Staphylococcus aureus. The experiment in a line: Growth inhibition of Staphylococcus aureus ATCC 25923 up to 100 ug/ml in presence of ciprofloxacin by checkerboard assay. It counts as organism-based. The settings on record: in vivo.
The target in data set [7] is T1, Quinolone resistance protein NorA (Staphylococcus aureus). In words: Inhibition of Staphylococcus aureus SA-1199 norA assessed as potentiation of ciprofloxacin-induced antibacterial activity up to 100 ug/ml by checkerboard method.
For data set [8] the target is unchanged. In words: Inhibition of Staphylococcus aureus SA-1199B NorA assessed as potentiation of ciprofloxacin-induced antibacterial activity by measuring minimum potetntiation concentration causing 4 fold reduction in ciprofloxacin MIC by ciprofloxacin assay.
The target is the same in data set [9]. In words: Potency index, ratio of reserpine IC50 to test compound IC50 for Staphylococcus aureus SA-1199B NorA assessed as reduction in EtBr efflux.
Data set [10] can be described thus: Cytotoxicity against human HepG2 cells assessed as reduction in cell number after 24 hrs by bioluminescence assay. The format is cell-based.
Data set [11] in a line: Selectivity index, ratio of CC50 for human HepG2 cells to compound effect for inhibition of Staphylococcus aureus SA-1199B NorA assessed as potentiation of ciprofloxacin-induced antibacterial activity by measuring minimum potetntiation concentration causing 4 fold reduction in ciprofloxacin MIC. The format is toxicity. The settings on record: read-out: Selectivity Index.

≈ marks a conversion by molar mass, not a printed value. Calls of active or inactive are those of the source. The rule behind the calls is not given here. Where only a bound is given, the exact number is not on record here.

What is called inhibition is the share of the control response that was lost under treatment. The IC50 is the midpoint of a concentration-inhibition curve. With `CCCOc1ccc(-c2cc(OCCN3CCCCC3)c3cc(OCCCN(C)C)ccc3n2)cc1`, the MIC in data set [1] stood at 100 µg/mL (≈ 203 µM); in data set [2] it was 100 µg/mL (≈ 203 µM); in data set [3], 203.4 µM. For the same molecule, in data set [4], the inhibition is 92.5%. For the same molecule, in data set [5], the IC50 was 7.2 µM. In addition, in [6], the “growth inhibition (GI)” value is recorded as “Non-Toxic”. For the same molecule, the outcome in data set [7] was inactive. Further, in data set [8], the Activity worked out at 6.25 µg/mL.
As to `CCCOc1ccc(-c2cc(OCCN(CC)CC)c3cc(OCCCN(C)C)ccc3n2)cc1`, the MIC in [1] is 100 µg/mL (≈ 208 µM); in data set [2] it was over 100 µg/mL; in data set [3], over 208.5 µM. Further, the inhibition in data set [4] was 80.9%. Besides, the half-maximal inhibitory concentration (IC50) in data set [5] was 8.8 µM. The “growth inhibition (GI)” value in data set [6] was “Non-Toxic”. The result in data set [7] was inactive.
As to `CCCOc1ccc(-c2cc(OCCN(CC)CC)c3cc(O)ccc3n2)cc1`, the MIC in data set [1] came out at 50 µg/mL (≈ 127 µM); in [2], 50 µg/mL (≈ 127 µM); in data set [3], 126.7 µM. Besides, in [4], the inhibition worked out at 95%. For the same molecule, the half-maximal inhibitory concentration (IC50) in data set [5] was determined as 5.8 µM. The “growth inhibition (GI)” value in data set [6] is given as “Non-Toxic”. Further, the result in data set [7] was inactive. Further, the Activity in [8] is 1.56 µg/mL. The Ratio IC50 in data set [9] was determined as 2.
The CC50 is the concentration at which the toxic effect on the cells reaches its halfway point. As to `CCCOc1ccc(-c2cc(OCCN(CC)CC)c3ccccc3n2)cc1`, the 50% inhibitory concentration (IC50) in [5] amounted to 8.9 µM. Moreover, in [8], the Activity was determined as 6.25 µg/mL. For the same molecule, the CC50 at 24 h in data set [10] stood at 21.6 µg/mL (≈ 57 µM). The selectivity ratio in [11] was 3.5.
For the molecule `COC(=O)[C@H]1[C@H]2C[C@@H]3c4[nH]c5cc(OC)ccc5c4CCN3C[C@H]2C[C@@H](OC(=O)c2cc(OC)c(OC)c(OC)c2)[C@@H]1OC` [RESERPINE], the MIC in data set [1] is over 100 µg/mL; in [2], over 100 µg/mL; in [3], over 164 µM. For the same molecule, the 50% inhibitory concentration (IC50) in data set [5] worked out at 9.2 µM. The Activity in data set [8] was found to be 1.56 µg/mL.
In the case of `CCCOc1ccc(-c2cc(OCCN(CC)CC)c3cc(OCCN(CC)CC)ccc3n2)cc1`, the values for the MIC in data set [1], in data set [2] and in data set [3] were 100 µg/mL (≈ 203 µM), over 100 µg/mL and over 202.6 µM, respectively. For the same molecule, the inhibition in [4] was 81.4%. In data set [5], the half-inhibitory concentration (IC50) stood at 10.6 µM. For the same molecule, in data set [6], the “growth inhibition (GI)” value is listed as “Non-Toxic”. Further, the outcome in data set [7] was inactive.
Take `CCCOc1ccc(-c2cc(OCCN3CCCCC3)c3ccccc3n2)cc1`: in [5], the IC50 was found to be 7.3 µM. For the same molecule, the Activity in data set [8] was 1.56 µg/mL. Besides, the CC50 at 24 h in data set [10] came out at 38.9 µg/mL (≈ 99.6 µM). In [11], the selectivity ratio amounted to 24.9.
On to `CCCOc1ccc(-c2cc(OCCN3CCCCC3)c3cc(OCc4ccccc4)ccc3n2)cc1`, for which the MIC in data set [1] and in [2] was 100 µg/mL (≈ 201 µM) each time. In data set [4], the inhibition stood at 76.3%. For the same molecule, the “growth inhibition (GI)” value in data set [6] is recorded as “Non-Toxic”. Further, the outcome in data set [7] was inactive. Moreover, in [8], the Activity was 0.78 µg/mL. Also, in data set [10], the half-maximal cytotoxic concentration (CC50) at 24 h is 33.8 µg/mL (≈ 68.1 µM). The selectivity ratio in [11] is 43.4. Further, in data set [9], the Ratio IC50 came out at 2.
As to `CCCOc1ccc(-c2cc(OCCN3CCCCC3)c3cc(OCCN(CC)CC)ccc3n2)cc1`, the MIC was 100 µg/mL (≈ 198 µM) in [1], 100 µg/mL (≈ 198 µM) in data set [2] and 197.7 µM in data set [3]. Moreover, in [4], the inhibition was 91.4%. Also, the IC50 in [5] came out at 5.2 µM. Further, the “growth inhibition (GI)” value in data set [6] was “Non-Toxic”. The outcome in [7] was inactive. For the same molecule, the Activity in [8] amounted to 25 µg/mL. The Ratio IC50 in data set [9] turned out to be 2.
With `CCCOc1ccc(-c2cc(OCCN3CCCCC3)c3cc(OCCCN4CCOCC4)ccc3n2)cc1`, the MIC in [1] stood at 100 µg/mL (≈ 187 µM); in [2], 50 µg/mL (≈ 93.7 µM); in data set [3], 93.7 µM. The inhibition in data set [4] is 93.2%. For the same molecule, the IC50 in [5] came to 4.4 µM. Further, the “growth inhibition (GI)” value in data set [6] is on record as “Non-Toxic”. In addition, the outcome in data set [7] was inactive. Also, the Activity in data set [8] amounted to 6.25 µg/mL. Moreover, the Ratio IC50 in data set [9] came out at 2.
As for `CCCOc1ccc(-c2cc(OCCN(CC)CC)c3cc(OCc4ccccc4)ccc3n2)cc1`, the MIC in [1] and in data set [2] was over 100 µg/mL each time. The inhibition in data set [4] is 91.1%. The “growth inhibition (GI)” value in data set [6] is listed as “Non-Toxic”. In addition, the outcome in data set [7] was inactive. In addition, the Activity in data set [8] was 0.78 µg/mL. Also, in data set [10], the CC50 at 24 h worked out at 12.3 µg/mL (≈ 25.3 µM). In [11], the selectivity ratio is 15.7. For the same molecule, in data set [9], the Ratio IC50 worked out at 2.
With `CCCOc1ccc(-c2cc(OCCN(CC)CC)c3cc(OCCCN4CCOCC4)ccc3n2)cc1`, the MIC in data set [1] was 100 µg/mL (≈ 192 µM); in [2], over 100 µg/mL; in data set [3] it was over 191.7 µM. The inhibition in [4] was 91.1%. Moreover, the concentration for half-maximal inhibition (IC50) in data set [5] stood at 5 µM. Moreover, in [6], the “growth inhibition (GI)” value is recorded as “Non-Toxic”. Further, in [7], the outcome was inactive. Further, the Activity in data set [8] came out at 12.5 µg/mL. For the same molecule, in [9], the Ratio IC50 was found to be 2.
Regarding `CCCOc1ccc(-c2cc(OCCN3CCCCC3)c3cc(O)ccc3n2)cc1`, the MIC amounted to 25 µg/mL (≈ 61.5 µM) in data set [1], 25 µg/mL (≈ 61.5 µM) in data set [2] and 61.5 µM in data set [3]. Also, in data set [4], the inhibition was 87%. Moreover, the IC50 in [5] is 3.3 µM. The “growth inhibition (GI)” value in [6] was “Non-Toxic”. For the same molecule, in data set [7], the outcome was inactive. In [8], the Activity came out at 6.25 µg/mL. In addition, the Ratio IC50 in data set [9] is 2.
Regarding `CCCOc1ccc(-c2cc(OCCN(CC)CC)c3cc(OCCN4CCCCC4)ccc3n2)cc1`, the MIC result in data set [1] and in data set [2] was “Nd(Insoluble)” throughout. In [6], the “growth inhibition (GI)” value is “Non-Toxic”. For the same molecule, the result in data set [7] was inactive.
Take `CCCOc1ccc(-c2cc(OCCN3CCCCC3)c3cc(OCCN4CCCCC4)ccc3n2)cc1`: the MIC result in [1] and in data set [2] was “Nd(Insoluble)” each time. Further, the “growth inhibition (GI)” value in [6] was “Non-Toxic”. Also, the result in [7] was inactive.
Consider `O=C(O)c1cn(C2CC2)c2cc(N3CCNCC3)c(F)cc2c1=O` [CIPROFLOXACIN], for which the MIC in data set [1] worked out at 0.63 µg/mL (≈ 1.9 µM); in data set [2] it was 0.63 µg/mL (≈ 1.9 µM); in [3], 10 µg/mL.

The values above are taken from ChEMBL document CHEMBL4152305, “Studies on 2-phenylquinoline Staphylococcus aureus NorA efflux pump inhibitors: New insights on the C-6 position” (Eur J Med Chem, 2018).
